The results in this text go back to patent publication US20260207578A1, “COMPOUND BASED ON SULFUR/OXYGEN SUBSTITUTED GLUTARIMIDE-BASED ISOINDOLINONE SKELETON AND USE THEREOF” (Gluetacs Therapeutics (Shanghai) Co., LTD., priority 2022, published 2026).

Structures are written as SMILES.

One experiment addresses T1, Wee1 (Homo sapiens, UniProt P30291+Q96SW2).
T1 construct: endogenous in cells; host or cells: human PBMCs (Milecell Biotechnologies)
In words: Western-blot assay, substrate protein in hPBMCs. It is filed as cell-based. The following applies: hPBMC cells, 24 hours, tested at 50 nM and 500 nM, table does not say which. As to the method:
(§1) The effect of the compounds of the present disclosure on the expression of target proteins in cells was detected using conventional Western blot analysis.
(§2) Human peripheral blood mononuclear cells (hPBMCs) at a density of 1×10^6 cells/mL were thawed according to the PBMC Recovery Protocol (Milecell Biotechnologies Inc, Shanghai).
(§3) After 24 hours of compounds treatment, cells were harvested and lysed in RIPA protein lysate containing phosphatase inhibitors on ice for 30-60 min, followed by centrifugation. The supernatant was aspirated as the extracted total cell protein. The protein concentration of the supernatant was determined using the conventional BCA (Bicinchoninic Acid) assay. The supernatant was then mixed with 4× SDS sample loading buffer, denatured at 95° C. for 5 minutes, and then subjected to SDS-PAGE electrophoresis on a polyacrylamide gel. Proteins were then transferred to a nitrocellulose (NC) membrane, blocked at room temperature for 1-2 h, and processed for antibody incubation and detection according to the manufacturer's instructions (Cell Signaling Technology).
(§4) Half-Maximal Degradation Concentration value (the drug concentration required for degrading proteins by 50%, abbreviated as DC50) reads method: comparing the grayscale values of Western blot bands from drug-treated samples with those from blank DMSO-treated controls, and identifying the drug concentration range at which the grayscale value is half that of the DMSO-treated control bands.
(§5) DC50 values can be calculated using ImageJ software to measure grayscale values of Western blot bands from drug-treated samples. The concentration-response curve is fitted to estimate the drug concentration corresponding to half the grayscale value.
(§6) Target protein remaining (%) refers to the percentage of target protein remaining in hPBMC cells after treatment with protein degrader compounds.
(§7) Calculation method for protein remaining (%): Use ImageJ software to measure grayscale values of Western blot bands from drug (protein degrader)-treated samples. The grayscale value of drug-treated bands is divided by that of internal control protein bands, and the resulting quotient is normalized to obtain the relative percentage of remaining target protein after protein degrader treatment.
(§8) Target protein degradation rate (%)=100%−target protein remaining (%).

The target in experiment [1] is T2, human Cereblon WT GST-tagged protein (Homo sapiens, UniProt Q96SW2).
T2 construct: purchased CISBIO 64BDCRBNPEH
Put plainly: CRBN-binding affinity, HTRF (CEREBLON BINDING kit). The following applies: displacement of Thalidomide-Re reagent, 3 hours at room temperature. Here is the method:
The CEREBLON BINDING kits (specification: 10,000 tests; product number: Catalog #64BDCRBNPEH; CISBIO company) was used to determine the CRBN binding ability of the compounds to be tested through a HTRF method (homogeneous time-resolved fluorescence). The specific methods are as follows: • 1. […] Then, 2.5 μL of human Cereblon WT GST-tagged protein solution was added to each well. Finally, 5 μL of the thoroughly mixed Thalidomide-Re reagent and GST Eu antibody working solution were added to each of the aforementioned wells. […] The blank control wells were sequentially added with 2.5 μL of diluent #9 (1×) solution, 2.5 μL of PROTAC binding buffer, and 5 μL of thoroughly mixed Thalidomide-Re reagent and GST Eu antibody working solution. • 4.
OD 620 nmcompound is the absorbance value of each well of the compounds to be tested of the present disclosure at an emission wavelength of 620 nm. […] OD 620 nmcontrol is the absorbance value of the blank control well at an emission wavelength of 620 nm. […] OD 620 nmStd0 is the absorbance value of the solvent control well at an emission wavelength of 620 nm.
In general terms: Time-resolved FRET reads energy transfer from a long-lived donor to a nearby acceptor.

The next experiment concerns the target T3, GSPT1 (Homo sapiens, UniProt P15170+Q96SW2).
T3 construct: endogenous in cells; host or cells: human PBMCs (Milecell Biotechnologies)
Put plainly: Western-blot assay, substrate protein in hPBMCs. The conditions noted are these: hPBMC cells, 24 hours, tested at 50 nM and 500 nM, table does not say which. The format is cell-based. As to the method:
as §1, §2, §3, §4, §5, §6, §7, §8

T1 sequence (P30291 whole entry): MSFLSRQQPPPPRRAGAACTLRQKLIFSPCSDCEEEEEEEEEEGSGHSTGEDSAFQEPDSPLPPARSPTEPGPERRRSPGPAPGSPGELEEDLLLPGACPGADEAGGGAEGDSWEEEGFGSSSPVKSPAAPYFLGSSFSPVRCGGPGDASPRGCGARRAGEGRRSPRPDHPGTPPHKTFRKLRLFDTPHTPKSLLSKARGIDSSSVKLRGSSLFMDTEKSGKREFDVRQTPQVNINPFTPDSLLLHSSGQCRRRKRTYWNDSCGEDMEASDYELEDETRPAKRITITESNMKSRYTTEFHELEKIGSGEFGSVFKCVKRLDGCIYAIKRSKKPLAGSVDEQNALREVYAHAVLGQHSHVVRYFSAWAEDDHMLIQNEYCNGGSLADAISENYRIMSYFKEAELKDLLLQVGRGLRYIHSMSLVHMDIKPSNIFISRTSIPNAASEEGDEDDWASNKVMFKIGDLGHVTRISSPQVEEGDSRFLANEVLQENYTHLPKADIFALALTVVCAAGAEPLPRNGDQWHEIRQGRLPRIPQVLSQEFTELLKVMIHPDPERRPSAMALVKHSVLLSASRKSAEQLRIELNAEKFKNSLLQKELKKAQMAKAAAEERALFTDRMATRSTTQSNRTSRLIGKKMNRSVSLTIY
T1 sequence (Q96SW2 whole entry): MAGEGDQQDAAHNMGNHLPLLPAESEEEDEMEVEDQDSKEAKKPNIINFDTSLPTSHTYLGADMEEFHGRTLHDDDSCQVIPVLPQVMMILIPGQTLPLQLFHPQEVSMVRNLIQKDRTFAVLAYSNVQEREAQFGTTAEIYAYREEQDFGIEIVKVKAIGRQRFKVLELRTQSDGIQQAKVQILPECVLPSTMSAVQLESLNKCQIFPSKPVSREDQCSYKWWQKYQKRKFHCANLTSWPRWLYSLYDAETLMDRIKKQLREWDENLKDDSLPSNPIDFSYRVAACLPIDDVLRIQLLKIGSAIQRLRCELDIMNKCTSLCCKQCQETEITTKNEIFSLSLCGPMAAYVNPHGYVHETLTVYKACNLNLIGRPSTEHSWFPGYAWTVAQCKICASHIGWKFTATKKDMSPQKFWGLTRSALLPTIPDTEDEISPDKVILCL
T1 sequence (Q16531 whole entry partner): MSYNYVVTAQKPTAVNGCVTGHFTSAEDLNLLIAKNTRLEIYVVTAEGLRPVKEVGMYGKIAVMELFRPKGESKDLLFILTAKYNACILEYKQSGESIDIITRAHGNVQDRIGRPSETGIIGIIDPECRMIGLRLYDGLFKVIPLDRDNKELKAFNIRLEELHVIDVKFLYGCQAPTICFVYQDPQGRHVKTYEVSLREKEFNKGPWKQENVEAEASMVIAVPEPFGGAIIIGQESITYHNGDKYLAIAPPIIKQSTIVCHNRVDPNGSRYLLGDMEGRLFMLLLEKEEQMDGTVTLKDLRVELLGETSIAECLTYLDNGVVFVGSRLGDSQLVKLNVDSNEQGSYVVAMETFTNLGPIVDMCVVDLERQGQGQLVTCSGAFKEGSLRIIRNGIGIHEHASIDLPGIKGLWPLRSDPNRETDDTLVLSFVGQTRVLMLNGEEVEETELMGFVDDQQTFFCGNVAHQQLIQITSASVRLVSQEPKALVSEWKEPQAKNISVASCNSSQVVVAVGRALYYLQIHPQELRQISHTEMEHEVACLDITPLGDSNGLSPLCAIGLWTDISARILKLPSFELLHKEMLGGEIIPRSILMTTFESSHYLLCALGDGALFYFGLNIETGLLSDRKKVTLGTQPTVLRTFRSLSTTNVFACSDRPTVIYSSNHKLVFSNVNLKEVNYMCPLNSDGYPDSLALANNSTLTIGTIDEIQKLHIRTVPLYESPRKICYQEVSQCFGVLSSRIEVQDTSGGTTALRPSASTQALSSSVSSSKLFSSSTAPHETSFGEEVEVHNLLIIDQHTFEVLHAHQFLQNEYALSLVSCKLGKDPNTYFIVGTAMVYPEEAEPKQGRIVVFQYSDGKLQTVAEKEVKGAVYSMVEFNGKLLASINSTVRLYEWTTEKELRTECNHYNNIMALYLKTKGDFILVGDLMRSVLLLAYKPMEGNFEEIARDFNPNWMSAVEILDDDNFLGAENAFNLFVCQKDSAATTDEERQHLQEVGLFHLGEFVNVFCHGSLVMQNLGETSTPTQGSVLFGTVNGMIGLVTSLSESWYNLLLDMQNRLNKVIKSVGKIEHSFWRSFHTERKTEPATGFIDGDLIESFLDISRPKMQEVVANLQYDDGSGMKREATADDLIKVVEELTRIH
T3 sequence (P15170 whole entry): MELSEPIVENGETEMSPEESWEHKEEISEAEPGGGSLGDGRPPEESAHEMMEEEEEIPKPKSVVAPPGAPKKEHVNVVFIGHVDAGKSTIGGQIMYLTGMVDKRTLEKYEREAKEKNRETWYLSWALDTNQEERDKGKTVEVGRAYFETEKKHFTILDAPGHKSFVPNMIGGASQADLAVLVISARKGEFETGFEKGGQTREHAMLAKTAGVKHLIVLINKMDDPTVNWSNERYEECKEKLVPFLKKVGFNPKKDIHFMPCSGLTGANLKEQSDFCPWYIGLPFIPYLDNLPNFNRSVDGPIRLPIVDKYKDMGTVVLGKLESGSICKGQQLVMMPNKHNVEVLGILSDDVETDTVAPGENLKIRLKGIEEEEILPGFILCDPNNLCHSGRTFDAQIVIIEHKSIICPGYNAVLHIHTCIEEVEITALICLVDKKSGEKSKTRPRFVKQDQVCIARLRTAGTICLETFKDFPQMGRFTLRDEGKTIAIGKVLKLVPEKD
T3 sequence (Q96SW2 whole entry): as the sequence (Q96SW2 whole entry) above
T3 sequence (Q16531 whole entry partner): as the sequence (Q16531 whole entry partner) above
T2 sequence (Q96SW2 whole entry): as the sequence (Q96SW2 whole entry) above

Turning to `O=C1CCC(N2Cc3cc(OC4CNC4)ccc3C2=O)C(=O)N1` (centres unmarked) [GT-03614, 3-(5-(azetidin-3-yloxy)-1-oxoisoindolin-2-yl)piperidine-2,6-dione], on Wee1, the “substrate protein remaining %” value is on record as “A (0%≤ substrate protein remaining % ≤80%)”.

The IC50 is the point on the concentration scale where inhibition reaches its midpoint. Low values mean higher potency, high ones lower potency. Regarding `O=C1CCC(N2Cc3cc(SC4CCN(Cc5ccccc5-c5ccc(Cl)cc5)C4)ccc3C2=O)C(=O)N1` (centres unmarked) [GT-04195, 3-(5-((1-((4′-chloro-[1,1′-biphenyl]-2-yl)methyl)pyrrolidin-3-yl)thio)-1-oxoisoindolin-2-yl)piperidine-2,6-dione], the IC50 in experiment [1] lay within 1000 to 1900 nM.

Turning to `O=C1CCC(N2Cc3cc(SC4CCNC4)ccc3C2=O)C(=O)N1` (centres unmarked) [GT-04309, 3-(1-oxo-5-(pyrrolidin-3-ylthio)isoindolin-2-yl)piperidine-2,6-dione], the “substrate protein remaining %” value at GSPT1 is recorded as “A (0%≤ substrate protein remaining % ≤80%)”.

As to `CC1(C)CCC(C(=O)N2CCC(Sc3ccc4c(c3)CN(C3CCC(=O)NC3=O)C4=O)C2)=C(c2ccc(Cl)cc2)C1` (centres unmarked) [GT-06139, 3-(5-((1-(4′-chloro-5,5-dimethyl-3,4,5,6-tetrahydro-[1,1′-biphenyl]-2-carbonyl)pyrrolidin-3-yl)thio)-1-oxoisoindolin-2-yl)piperidine-2,6-dione], the IC50 in experiment [1] was in the range of 500 to 1000 nM.

With `CC1(C)CCC(C(=O)N2CCC(Sc3ccc4c(c3)CN(C3CCC(=O)NC3=O)C4=O)CC2)=C(c2ccc(Cl)cc2)C1` (centres unmarked) [GT-06140, 3-(5-((1-(4′-chloro-5,5-dimethyl-3,4,5,6-tetrahydro-[1,1′-biphenyl]-2-carbonyl)piperidin-4-yl)thio)-1-oxoisoindolin-2-yl)piperidine-2,6-dione], the IC50 in experiment [1] is 500 to 1000 nM. Moreover, the “substrate protein remaining %” value on Wee1 is listed as “A (0%≤ substrate protein remaining % ≤80%)”.

For `O=C1CCC(N2Cc3cc(OC4CN(C(=O)c5ccccc5-c5ccc(Cl)cc5)C4)ccc3C2=O)C(=O)N1` (centres unmarked) [GT-06183, 3-(5-((1-(4′-chloro-[1,1′-biphenyl]-2-carbonyl)azetidin-3-yl)oxy)-1-oxoisoindolin-2-yl)piperidine-2,6-dione], in experiment [1], the IC50 is < 500 nM. For the same compound, at Wee1, the “substrate protein remaining %” value is reported as “A (0%≤ substrate protein remaining % ≤80%)”.

As to `O=C1CCC(N2Cc3cc(SC4CN(C(c5ccc(Cl)cc5)c5ccc(Cl)cc5)C4)ccc3C2=O)C(=O)N1` (centres unmarked) [GT-06504, 3-(5-((1-(bis(4-chlorophenyl)methyl)azetidin-3-yl)thio)-1-oxoisoindolin-2-yl)piperidine-2,6-dione], the IC50 in experiment [1] was in the range of 500 to 1000 nM.

For `O=C1CCC(N2Cc3cc(SC4CN(CC5=C(c6ccc(F)cc6)CCOC5)C4)ccc3C2=O)C(=O)N1` (centres unmarked) [GT-06513, 3-(5-((1-((4-(4-fluorophenyl)-5,6-dihydro-2H-pyran-3-yl)methyl)azetidin-3-yl)thio)-1-oxoisoindolin-2-yl)piperidine-2,6-dione], the IC50 in experiment [1] was < 500 nM. In addition, the “substrate protein remaining %” value at GSPT1 is listed as “A (0%≤ substrate protein remaining % ≤80%)”.

On to `O=C1CCC(N2Cc3cc(SC4CN(Cc5ccc(-c6ccco6)s5)C4)ccc3C2=O)C(=O)N1` (centres unmarked) [GT-06517, 3-(5-((1-((5-(furan-2-yl)thiophen-2-yl)methyl)azetidin-3-yl)thio)-1-oxoisoindolin-2-yl)piperidine-2,6-dione], for which the IC50 in experiment [1] is < 500 nM.

In experiment [1], `O=C1CCC(N2Cc3cc(OC4CN(C(c5ccc(Cl)cc5)c5ccc(Cl)cc5)C4)ccc3C2=O)C(=O)N1` (centres unmarked) [GT-06520, 3-(5-((1-(bis(4-chlorophenyl)methyl)azetidin-3-yl)oxy)-1-oxoisoindolin-2-yl)piperidine-2,6-dione] showed an IC50 of 1000 to 1900 nM. Besides, the “substrate protein remaining %” value on GSPT1 is reported as “A (0%≤ substrate protein remaining % ≤80%)”.

Take `O=C1CCC(N2Cc3cc(SC4CCCN(C(=O)c5ccccc5-c5ccc(Cl)cc5)CC4)ccc3C2=O)C(=O)N1` (centres unmarked) [GT-06644, 3-(5-((1-(4′-chloro-[1,1′-biphenyl]-2-carbonyl)azepan-4-yl)thio)-1-oxoisoindolin-2-yl)piperidine-2,6-dione]: the IC50 in experiment [1] was < 500 nM. Further, the “substrate protein remaining %” value on GSPT1 is recorded as “A (0%≤ substrate protein remaining % ≤80%)”.

`CC1(C)CCC(CN2CC(Sc3ccc4c(c3)C(=O)N(C3CCC(=O)NC3=O)C4)C2)=C(c2ccc(Cl)cc2)C1` (centres unmarked) [GT-06757, 3-(6-((1-((4′-chloro-5,5-dimethyl-3,4,5,6-tetrahydro-[1,1′-biphenyl]-2-yl)methyl)azetidin-3-yl)thio)-1-oxoisoindolin-2-yl)piperidine-2,6-dione] registered an IC50 in experiment [1] of 1000 to 1900 nM.

In the case of `O=C1CCC(N2Cc3cc(SC4CN(C(c5ccccc5)c5cccnc5)C4)ccc3C2=O)C(=O)N1` (centres unmarked) [GT-06807, 3-(1-oxo-5-((1-(phenyl(pyridin-3-yl)methyl)azetidin-3-yl)thio)isoindolin-2-yl)piperidine-2,6-dione], the IC50 in experiment [1] is < 500 nM.

Take `COc1ccc(C(c2ccc(OC)cc2)N2CC(Sc3ccc4c(c3)CN(C3CCC(=O)NC3=O)C4=O)C2)cc1` (centres unmarked) [GT-06923, 3-(5-((1-(bis(4-methoxyphenyl)methyl)azetidin-3-yl)thio)-1-oxoisoindolin-2-yl)piperidine-2,6-dione]: the IC50 in experiment [1] is < 500 nM.

In the case of `O=C1CCC(N2Cc3c(SC4CNC4)cccc3C2=O)C(=O)N1` (centres unmarked) [GT-06992, 3-(4-(azetidin-3-ylthio)-1-oxoisoindolin-2-yl)piperidine-2,6-dione], the IC50 in experiment [1] lay in the range of 500 to 1000 nM.

For the compound `O=C1CCC(N2Cc3ccc(SC4CNC4)cc3C2=O)C(=O)N1` (centres unmarked) [GT-06993, 3-(6-(azetidin-3-ylthio)-1-oxoisoindolin-2-yl)piperidine-2,6-dione], the concentration for half-maximal inhibition (IC50) in experiment [1] lay in the range of 1000 to 1900 nM.

In experiment [1], `O=C1CCC(N2Cc3cc(SC4CC5CNCC5C4)ccc3C2=O)C(=O)N1` (centres unmarked) [GT-06996, 3-(5-((octahydrocyclopenta[c]pyrrol-5-yl)thio)-1-oxoisoindolin-2-yl)piperidine-2,6-dione] displayed an IC50 of 1000 to 1900 nM.

`O=C1CCC(N2Cc3cc(SC4CCC5(CCNCC5)CC4)ccc3C2=O)C(=O)N1` (centres unmarked) [GT-06998, 3-(5-((3-azaspiro[5.5]undecan-9-yl)thio)-1-oxoisoindolin-2-yl)piperidine-2,6-dione] came in with an IC50 in experiment [1] of 1000 to 1900 nM.

In experiment [1], `O=C1CCC(N2Cc3cc(SC4CCNCC4(F)F)ccc3C2=O)C(=O)N1` (centres unmarked) [GT-06999, 3-(5-((3,3-difluoropiperidin-4-yl)thio)-1-oxoisoindolin-2-yl)piperidine-2,6-dione] yielded a half-maximal inhibitory concentration (IC50) of 500 to 1000 nM.

`O=C1CCC(N2Cc3c(OC4CNC4)cccc3C2=O)C(=O)N1` (centres unmarked) [GT-07000, 3-(4-(azetidin-3-yloxy)-1-oxoisoindolin-2-yl)piperidine-2,6-dione]: the half-inhibitory concentration (IC50) in experiment [1] is < 500 nM.

For the compound `O=C1CCC(N2Cc3cc(OC4CCCNCC4)ccc3C2=O)C(=O)N1` (centres unmarked) [GT-07003, 3-(5-(azepan-4-yloxy)-1-oxoisoindolin-2-yl)piperidine-2,6-dione], at Wee1, the “substrate protein remaining %” value was “A (0%≤ substrate protein remaining % ≤80%)”.

Turning to `O=C1CCC(N2Cc3cc(OC4CC5CNCC5C4)ccc3C2=O)C(=O)N1` (centres unmarked) [GT-07004, 3-(5-((octahydrocyclopenta[c]pyrrol-5-yl)oxy)-1-oxoisoindolin-2-yl)piperidine-2,6-dione], the IC50 in experiment [1] lay within 1000 to 1900 nM.

`CC1(C)CCC(C(=O)N2CCC(Sc3ccc4c(c3)CN(C3CCC(=O)NC3=O)C4=O)C(F)(F)C2)=C(c2ccc(Cl)cc2)C1` (centres unmarked) [GT-07017, 3-(5-((1-(4′-chloro-5,5-dimethyl-3,4,5,6-tetrahydro-[1,1′-biphenyl]-2-carbonyl)-3,3-difluoropiperidin-4-yl)thio)-1-oxoisoindolin-2-yl)piperidine-2,6-dione] returned an IC50 in experiment [1] of 1000 to 1900 nM.

Take `CC1(C)CCC(C(=O)N2CCCC(Oc3ccc4c(c3)CN(C3CCC(=O)NC3=O)C4=O)CC2)=C(c2ccc(Cl)cc2)C1` (centres unmarked) [GT-07018, 3-(5-((1-(4′-chloro-5,5-dimethyl-3,4,5,6-tetrahydro-[1,1′-biphenyl]-2-carbonyl)azepan-4-yl)oxy)-1-oxoisoindolin-2-yl)piperidine-2,6-dione]: the IC50 in experiment [1] is < 500 nM.
